Laboratory results reported in patent US9617244B2, “Antibacterial quinoline derivatives” (JANSSEN PHARMACEUTICA NV, priority 2012, dated 2017).
Values after ≈ are worked out from the molar mass of the structure shown.

Tests used:
[1] = tested on: Mycobacterium smegmatis (ATCC607); assay: In-vitro anti-bacterial activity against strain M. Smegmatis ATCC607; type: cell-based; conditions: 90% inhibitory concentration for bacterial growth, Alamar Blue fluorescence; for IC90 MSM 607: 48 hours; for IC90: Mycolicibacterium smegmatis, ATCC607, 48 h, read-out: IC90 MSM 607
In short: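 IC90 (μg/ml) derived from Alamar Blue fluorescence (530/590 nm) after 48 h growth at 37 °C under 5% CO2. About 250 CFU per well in Mueller-Hinton broth faced five-fold serial compound dilutions in BSA-containing wells.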

[2] = tested on: Staphylococcus aureus (ATCC29213); assay: In-vitro anti-bacterial activity, microtitre plate assay, IC90 determination (non-mycobacterial strains); type: cell-based; conditions: 90% inhibitory concentration for bacterial growth, resazurin fluorescence; for IC90 STA B29213: 24 hours; for IC90: Staphylococcus aureus, ATCC29213, 24 h, read-out: IC90 STA B29213
In short: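 Growth inhibition measured fluorometrically with resazurin (530/590 nm) after overnight 37 °C incubation under normal atmosphere. Bacteria added at roughly 100 TCID50 per well in Mueller-Hinton broth to five-fold compound dilution series; IC90 reported in μg/ml.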

| IC90 MSM 607 [1] [µg/mL] | melting point [°C] | IC90 STA B29213 [2] [µg/mL] | IC90 [1] [µg/mL] | IC90 [2] [µg/mL] | Structure (SMILES) |
| --- | --- | --- | --- | --- | --- |
| >12.63 | 194 | >12.63 | – | – | CS(=O)(=O)c1ccc2[nH]c(=O)c(C(c3ccccc3)C3(O)CCNC(Cc4ccccc4)C3)cc2c1 (stereo not drawn) [Compound 155] |
| 0.90 (≈ 1.77 µM) | 107 | 1.14 (≈ 2.25 µM) | – | – | COc1nc2ccc(Cl)cc2cc1C(c1ccc(Cl)cc1)C1(O)CCNC(Cc2ccccc2)C1 (stereo not drawn) [Compound 37] |
| 3.59 (≈ 6.31 µM) | 103 | 1.80 (≈ 3.16 µM) | – | – | COc1nc2ccc(S(C)(=O)=O)cc2cc1C(c1ccc(Cl)cc1)C1(O)CCNC(Cc2ccc(F)cc2)C1 (stereo not drawn) [Compound 388] |
| 4.35 (≈ 9.99 µM) | 200 | 8.69 (≈ 20 µM) | – | – | COc1nc2ccc(Cl)cc2cc1C(c1ccc(Cl)cc1)C1(O)CCNCC1F (stereo not drawn) [Compound 450] |
| – | 125 | – | > 11.1 | > 11.1 | COc1nc2ccc(Br)cc2cc1C(c1ccccc1)C1(O)CCNCC1C (stereo not drawn) [Compound 425] |
| 3.30 (≈ 6.31 µM) | 192 | 3.30 (≈ 6.31 µM) | – | – | CSc1ccc2[nH]c(=O)c(C(c3cccc(Cl)c3)C3(O)CCNC(c4ccc(F)cc4C)C3)cc2c1 (stereo not drawn) [Compound 176] |
| 1.80 (≈ 3.16 µM) | 98 | 1.80 (≈ 3.16 µM) | – | – | COc1nc2ccc(Br)cc2cc1C(c1ccc(Cl)cc1)C1(O)CCNC(Cc2ccc(F)cc2)C1 (stereo not drawn) [Compound 356] |
| 9.75 (≈ 20 µM) | 173 | 6.15 (≈ 12.6 µM) | – | – | CSc1ccc2[nH]c(=O)c(C(c3ccccc3)C3(O)CCNC(c4ccc(F)cc4C)C3)cc2c1 (stereo not drawn) [Compound 181] |
| – | 114 | 1.60 (≈ 3.15 µM) | 1.01 (≈ 1.99 µM) | – | COc1nc2ccc(Cl)cc2cc1C(c1ccc(Cl)cc1)C1(O)CCNC(Cc2ccccc2)C1 (stereo not drawn) [Compound 96] |
| 2.27 (≈ 3.99 µM) | 186 | 1.80 (≈ 3.16 µM) | – | – | COc1nc2ccc(S(C)(=O)=O)cc2cc1C(c1ccc(Cl)cc1)C1(O)CCNC(c2ccc(F)cc2C)C1 (stereo not drawn) [Compound 202] |
| 7.16 (≈ 12.6 µM) | 150 | – | – | 7.16 (≈ 12.6 µM) | COc1nc2ccc(S(C)(=O)=O)cc2cc1C(c1ccc(Cl)cc1)C1(O)CCNCC1Cc1cccc(F)c1 (stereo not drawn) [Compound 291] |
| 5.69 (≈ 10 µM) | 152 | 7.16 (≈ 12.6 µM) | – | – | COc1nc2ccc(S(C)(=O)=O)cc2cc1C(c1ccc(Cl)cc1)C1(O)CCNC(c2ccc(F)cc2C)C1 (stereo not drawn) [Compound 216] |
| 0.62 (≈ 1.26 µM) | 176 | 1.23 (≈ 2.51 µM) | – | – | COc1nc2ccc(F)cc2cc1C(c1ccc(Cl)cc1)C1(O)CCNC(Cc2ccccc2)C1 (stereo not drawn) [Compound 52] |
| 1.07 (≈ 2 µM) | 178 | 1.69 (≈ 3.16 µM) | – | – | COc1nc2ccc(Br)cc2cc1C(c1ccccc1)C1(O)CCNC(c2ccc(F)cc2C)C1 (stereo not drawn) [Compound 249] |
| 1.43 (≈ 2.51 µM) | 198 | 1.80 (≈ 3.16 µM) | – | – | COc1nc2ccc(Br)cc2cc1C(c1ccc(Cl)cc1)C1(O)CCNC(Cc2ccc(F)cc2)C1 (stereo not drawn) [Compound 338] |
| 1.47 (≈ 2.5 µM) | 188 | 3.70 (≈ 6.3 µM) | – | – | COc1nc2ccc(S(C)(=O)=O)cc2cc1C(c1ccc(Cl)cc1)C1(O)CCNC(c2ccc3ccccc3c2)C1 (stereo not drawn) [Compound 466] |
| 5.69 (≈ 10 µM) | 161 | 7.16 (≈ 12.6 µM) | – | – | COc1nc2ccc(S(C)(=O)=O)cc2cc1C(c1cccc(Cl)c1)C1(O)CCNC(c2ccc(F)cc2C)C1 (stereo not drawn) [Compound 171] |

| IC90 MSM 607 [1] [µg/mL] | melting point [°C] | IC90 STA B29213 [2] [µg/mL] | IC90 [1] [µg/mL] | IC90 [2] [µg/mL] | Structure (SMILES) |
| --- | --- | --- | --- | --- | --- |
| 1.69 (≈ 3.16 µM) | 132 | 3.38 (≈ 6.31 µM) | – | – | COc1nc2ccc(Br)cc2cc1C(c1ccccc1)C1(O)CCNC(c2ccc(F)cc2C)C1 (stereo not drawn) [Compound 247] |
| 2.62 (≈ 4.46 µM) | 168 | 5.87 (≈ 10 µM) | – | – | COc1nc2ccc(S(C)(=O)=O)cc2cc1C(c1ccc(Cl)cc1)C1(O)CCNC(c2ccc3ccccc3c2)C1 (stereo not drawn) [Compound 465] |
| 10.67 (≈ 20 µM) | 183 | 13.43 (≈ 25.1 µM) | – | – | COc1nc2ccc(S(C)(=O)=O)cc2cc1C(c1ccccc1)C1(O)CCNC(c2ccc(F)cc2C)C1 (stereo not drawn) [Compound 251] |
| 0.93 (≈ 1.58 µM) | 192 | 1.86 (≈ 3.17 µM) | – | – | COc1nc2ccc(S(C)(=O)=O)cc2cc1C(c1ccc(Cl)cc1)C1(O)CCNC(c2ccc3ccccc3c2)C1 (stereo not drawn) [Compound 462] |
| 1.35 (≈ 2.51 µM) | 110 | 1.70 (≈ 3.17 µM) | – | – | COc1nc2ccc(SC)cc2cc1C(c1ccc(Cl)cc1)C1(O)CCNC(Cc2ccc(F)cc2)C1 (stereo not drawn) [Compound 299] |
| 13.20 (≈ 25.1 µM) | 126 | 13.20 (≈ 25.1 µM) | – | – | COc1nc2ccc(Cl)cc2cc1C(c1ccc(Cl)cc1)C1(O)CCNC(c2ccc(F)cc2C)C1 (single isomer, unassigned) [Compound 2] |
| 0.90 (≈ 1.58 µM) | 169 | 1.27 (≈ 2.23 µM) | – | – | COc1nc2ccc(S(C)(=O)=O)cc2cc1C(c1ccc(Cl)cc1)C1(O)CCNC(c2ccc(F)cc2C)C1 (stereo not drawn) [Compound 217] |
| 1.17 (≈ 1.99 µM) | 154 | 1.47 (≈ 2.5 µM) | – | – | COc1nc2ccc(S(C)(=O)=O)cc2cc1C(c1ccc(Cl)cc1)C1(O)CCNC(c2ccc3ccccc3c2)C1 (stereo not drawn) [Compound 464] |
| – | 160 | – | 1.14 (≈ 2 µM) | 1.8 (≈ 3.16 µM) | COc1nc2ccc(Br)cc2cc1C(c1ccc(Cl)cc1)C1(O)CCNC(c2ccc(F)cc2C)C1 (stereo not drawn) [Compound 104] |
| >11.09 | 174 | >11.09 | – | – | COc1nc2ccc(Br)cc2cc1C(c1ccccc1)C1(O)CCNCC1C (stereo not drawn) [Compound 426] |
| 0.85 (≈ 1.59 µM) | 141 | 1.69 (≈ 3.16 µM) | – | – | COc1nc2ccc(Br)cc2cc1C(c1ccccc1)C1(O)CCNC(c2ccc(F)cc2C)C1 (stereo not drawn) [Compound 61] |
| 2.61 (≈ 5.01 µM) | 206 | – | – | 3.29 (≈ 6.32 µM) | COc1nc2ccc(F)cc2cc1C(c1ccc(SC)cc1)C1(O)CCNC(c2ccc(F)cc2C)C1 (stereo not drawn) [Compound 406] |
| >14.27 | 184 | >14.27 | – | – | COc1nc2ccc(S(C)(=O)=O)cc2cc1C(c1ccc(Cl)cc1)C1(O)CCNCC1Cc1cccc[n+]1[O-] (stereo not drawn) [Compound 66] |
| – | 212 | – | 4.57 (≈ 10 µM) | 5.75 (≈ 12.6 µM) | COc1nc2ccc(SC)cc2cc1[C@@H](c1ccc(Cl)cc1)C1(O)CCNCC1(C)C (stereo in doubt) [Compound 62] |
| 0.90 (≈ 1.58 µM) | 221 | – | – | 1.8 (≈ 3.16 µM) | COc1nc2ccc(Br)cc2cc1C(c1ccc(Cl)cc1)C1(O)CCNCC1Cc1cccc(F)c1 (stereo not drawn) [Compound 226] |
| 7.29 (≈ 12.6 µM) | 204 | 14.55 (≈ 25.1 µM) | – | – | COc1nc2ccc(S(=O)(=O)C(C)C)cc2cc1C(c1ccc(Cl)cc1)C1(O)CCNC(Cc2ccccc2)C1 (stereo not drawn) [Compound 387] |
